Reference: ChEMBL document CHEMBL1201862, “PubChem BioAssay data set” (2004)
Active and inactive are the calls of the source.

Key:
INS1 [1] = experiment: protection from cytokine-induced mitochondrial depolarization, dose response, cell-based, INS-1E, JC-1 fluorescence ratio, dry powder (AID 488931); format: functional; conditions: Rattus norvegicus
[2] = inhibitors of cytokine-induced nitrite release, dose response, cell-based, Griess absorbance, INS-1E, dry powder, set 3 (AID 488870); format: functional; conditions: Rattus norvegicus
INS1 [3] = experiment: protection of INS-1E cells from cytokine death, dose response, ATP luminescence, dry powder (AID 488844); format: functional, cell-based; conditions: Rattus norvegicus
INS1 [4] = experiment: inhibitors of cytokine-induced nitrite release, dose response, cell-based, Griess absorbance, INS-1E, dry powder, set 2 (AID 488868); format: functional; conditions: Rattus norvegicus
Prothrombin = Prothrombin (Bos taurus, UniProt P00735); experiment: thrombin inhibition, dose response, biochemical, fluorescence polarization, uHTS hits (AID 602369); format: functional
[5] = target: 72 kDa type IV collagenase (Homo sapiens, UniProt P08253); experiment: Dose Response validation of uHTS RPN11 inhibitor hits using a MMP-2 Fluorescence assay.; format: functional
[6] = target: 26S proteasome non-ATPase regulatory subunit 14 (Homo sapiens, UniProt O00487); experiment: inhibition of proteasome subunit RPN11 – biochemical, fluorescence polarization, uHTS hits, confirmation (AID 602368); format: functional
[7] = target: T1, Sentrin-specific protease 8 (Homo sapiens, UniProt Q96LD8); experiment: SENP8 protease inhibitors, SAR follow-up, biochemical, luminescence, set 2 (AID 588601); format: functional
T1 sequence (Q96LD8 whole entry): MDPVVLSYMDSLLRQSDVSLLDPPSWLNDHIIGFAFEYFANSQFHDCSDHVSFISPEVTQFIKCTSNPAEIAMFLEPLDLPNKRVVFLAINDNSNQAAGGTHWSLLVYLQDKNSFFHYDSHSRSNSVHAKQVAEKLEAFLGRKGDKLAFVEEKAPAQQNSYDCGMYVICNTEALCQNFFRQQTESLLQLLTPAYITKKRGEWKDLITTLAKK

Caspase-3 = target: T2, Caspase-3 (Homo sapiens, UniProt P42574); experiment: caspase-3 inhibitors as off-family protease, SAR follow-up, selectivity assay for SENP protease inhibitor project, biochemical, luminescence, set 2 (AID 588599); format: functional
T2 sequence (P42574 whole entry): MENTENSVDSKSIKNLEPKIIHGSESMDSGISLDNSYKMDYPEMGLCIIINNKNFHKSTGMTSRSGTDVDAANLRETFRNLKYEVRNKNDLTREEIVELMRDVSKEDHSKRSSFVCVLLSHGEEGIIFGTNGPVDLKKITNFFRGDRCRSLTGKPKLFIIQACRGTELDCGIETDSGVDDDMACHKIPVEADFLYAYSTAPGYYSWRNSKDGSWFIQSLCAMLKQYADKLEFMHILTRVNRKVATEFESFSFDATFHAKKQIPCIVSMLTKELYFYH

[8] = target: T3, Sentrin-specific protease 6 (Homo sapiens, UniProt Q9GZR1); experiment: SENP6 protease inhibitors, SAR follow-up, biochemical, luminescence, set 2 (AID 588598); format: functional
T3 sequence (Q9GZR1 whole entry): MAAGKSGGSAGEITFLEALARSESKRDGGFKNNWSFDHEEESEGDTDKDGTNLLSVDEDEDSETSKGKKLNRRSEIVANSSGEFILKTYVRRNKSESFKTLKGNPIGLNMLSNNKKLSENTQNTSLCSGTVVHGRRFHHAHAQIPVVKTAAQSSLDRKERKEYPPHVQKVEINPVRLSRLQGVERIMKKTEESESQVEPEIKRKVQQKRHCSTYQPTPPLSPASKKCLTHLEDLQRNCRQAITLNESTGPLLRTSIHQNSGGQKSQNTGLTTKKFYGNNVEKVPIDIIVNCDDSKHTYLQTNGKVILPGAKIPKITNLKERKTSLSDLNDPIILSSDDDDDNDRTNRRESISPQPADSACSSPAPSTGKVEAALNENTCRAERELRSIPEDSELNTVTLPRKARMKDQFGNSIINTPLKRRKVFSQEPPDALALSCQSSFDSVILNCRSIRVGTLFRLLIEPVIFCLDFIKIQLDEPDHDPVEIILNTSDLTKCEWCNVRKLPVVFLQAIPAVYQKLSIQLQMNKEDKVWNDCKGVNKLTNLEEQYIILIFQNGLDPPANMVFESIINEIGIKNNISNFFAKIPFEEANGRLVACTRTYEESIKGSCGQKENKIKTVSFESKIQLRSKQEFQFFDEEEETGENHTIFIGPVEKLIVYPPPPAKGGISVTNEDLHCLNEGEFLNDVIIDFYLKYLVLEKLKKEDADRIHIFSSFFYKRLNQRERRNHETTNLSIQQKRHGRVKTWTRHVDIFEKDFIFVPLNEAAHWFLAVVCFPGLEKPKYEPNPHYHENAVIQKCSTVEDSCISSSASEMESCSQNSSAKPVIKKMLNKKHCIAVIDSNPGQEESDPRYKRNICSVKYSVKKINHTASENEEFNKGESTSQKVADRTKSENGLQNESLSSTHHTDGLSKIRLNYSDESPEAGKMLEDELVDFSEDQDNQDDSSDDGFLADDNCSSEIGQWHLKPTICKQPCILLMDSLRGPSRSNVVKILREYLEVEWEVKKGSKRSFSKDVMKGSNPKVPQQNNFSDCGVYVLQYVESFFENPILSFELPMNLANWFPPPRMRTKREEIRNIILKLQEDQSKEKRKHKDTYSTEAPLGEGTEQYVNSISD

[9] = target: T4, Sentrin-specific protease 7 (Homo sapiens, UniProt Q9BQF6); experiment: SENP7 protease inhibitors, SAR follow-up, biochemical, luminescence, set 2 (AID 588600); format: functional
T4 sequence (Q9BQF6 whole entry): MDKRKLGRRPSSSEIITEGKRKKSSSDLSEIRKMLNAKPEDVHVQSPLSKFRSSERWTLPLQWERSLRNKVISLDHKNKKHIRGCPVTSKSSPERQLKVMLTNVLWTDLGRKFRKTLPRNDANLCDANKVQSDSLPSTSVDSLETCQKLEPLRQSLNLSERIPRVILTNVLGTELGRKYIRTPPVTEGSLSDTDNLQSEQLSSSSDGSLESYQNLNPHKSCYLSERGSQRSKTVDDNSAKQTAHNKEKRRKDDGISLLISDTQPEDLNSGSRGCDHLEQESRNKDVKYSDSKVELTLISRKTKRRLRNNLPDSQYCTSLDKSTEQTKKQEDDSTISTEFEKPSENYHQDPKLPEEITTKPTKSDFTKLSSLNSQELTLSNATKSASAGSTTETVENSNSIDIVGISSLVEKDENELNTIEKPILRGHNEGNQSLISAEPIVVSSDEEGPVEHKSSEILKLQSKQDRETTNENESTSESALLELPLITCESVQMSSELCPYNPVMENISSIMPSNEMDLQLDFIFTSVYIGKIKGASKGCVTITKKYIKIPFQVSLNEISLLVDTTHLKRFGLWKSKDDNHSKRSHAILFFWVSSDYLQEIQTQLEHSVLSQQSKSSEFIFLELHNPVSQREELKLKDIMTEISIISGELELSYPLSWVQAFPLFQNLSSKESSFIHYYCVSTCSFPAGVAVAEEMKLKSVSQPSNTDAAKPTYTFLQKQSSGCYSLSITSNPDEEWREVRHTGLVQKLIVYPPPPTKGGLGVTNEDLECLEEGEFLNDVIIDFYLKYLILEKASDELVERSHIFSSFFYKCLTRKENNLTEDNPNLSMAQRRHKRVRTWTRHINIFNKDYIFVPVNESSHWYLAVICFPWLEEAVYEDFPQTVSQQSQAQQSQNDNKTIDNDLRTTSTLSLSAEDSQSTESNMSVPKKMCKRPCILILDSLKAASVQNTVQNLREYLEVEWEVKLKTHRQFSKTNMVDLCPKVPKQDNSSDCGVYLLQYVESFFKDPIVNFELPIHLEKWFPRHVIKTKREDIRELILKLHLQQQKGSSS

HSP90 = HSP90 (Plasmodium falciparum 3D7, UniProt Q8IL32); format: functional, organism-based
Paired box protein Pax-8 = Paired box protein Pax-8 (Homo sapiens, UniProt Q06710); experiment: inhibitors of PAX8-driven TPO luciferase reporter, dose response, RMG-I cells, cherry-pick (AID 687027); format: functional, cell-based;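 also: luciferase reporter driven by Pax8 target thyroperoxidase promoter measured by SteadyGlo luminescence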
[10] = HeLa 2N DNA content increase, dose response, cell-based, IC50 (AID 1117349); format: functional
[11] = SNU-C1 cell viability reduction, dose response, CellTiter-Glo luminescence (AID 1117323); format: functional, cell-based
[12] = CellTiter-Glo luminescent dose response of DLD-1 viability loss (AID 1117352); format: functional
[13] = cytotoxicity toward Colo320 cells – cell-based, CellTiter-Glo luminescence, IC50, dose response (AID 1117334); format: functional; conditions: COLO 320
[14] = cytotoxicity toward HT-29 cells – cell-based, CellTiter-Glo luminescence, IC50, dose response (AID 1117330); format: functional
[15] = cytotoxicity toward HCT116 cells – cell-based, CellTiter-Glo luminescence, IC50, dose response (AID 1117332); format: functional; conditions: HCT-116
[16] = RKO cell viability reduction, dose response, CellTiter-Glo luminescence (AID 1117322); format: functional
[17] = cytotoxicity in KRAS-transformed pancreatic duct cells, primary screen, cell-based, fluorescence, HTS (AID 431); format: functional; conditions: Homo sapiens;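 also: cell line used: HPDE-C7K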
[18] = Concentration-dependent survival of SW480 colon cancer line, luminescence detection with CellTiter-Glo, half-maximal inhibitory concentration (AID 1117338); format: functional
[19] = cytotoxicity in HPDE-C7 cells, cell-based, fluorescence, HTS (AID 430); format: functional; conditions: Homo sapiens
[20] = HeLa 4N DNA content increase, dose response, cell-based, IC50 (AID 1117351); format: functional
[21] = target: Heat shock protein HSP 90-alpha (Homo sapiens, UniProt P07900); format: functional, organism-based
[22] = target: Multidrug resistance protein CDR1 (Candida albicans, UniProt P43071); experiment: CaCDR1 efflux pump inhibitors in yeast, dose response, S. cerevisiae AD1-8u, singleplex, Cherry Pick1 hits (AID 588606); format: functional
[23] = target: T5, High affinity choline transporter 1 (Homo sapiens, UniProt Q9GZV3); experiment: CHT activators, dose response, cell-based, 10-point CRC, membrane potential dye (AID 602376); format: functional
T5 sequence (Q9GZV3 whole entry): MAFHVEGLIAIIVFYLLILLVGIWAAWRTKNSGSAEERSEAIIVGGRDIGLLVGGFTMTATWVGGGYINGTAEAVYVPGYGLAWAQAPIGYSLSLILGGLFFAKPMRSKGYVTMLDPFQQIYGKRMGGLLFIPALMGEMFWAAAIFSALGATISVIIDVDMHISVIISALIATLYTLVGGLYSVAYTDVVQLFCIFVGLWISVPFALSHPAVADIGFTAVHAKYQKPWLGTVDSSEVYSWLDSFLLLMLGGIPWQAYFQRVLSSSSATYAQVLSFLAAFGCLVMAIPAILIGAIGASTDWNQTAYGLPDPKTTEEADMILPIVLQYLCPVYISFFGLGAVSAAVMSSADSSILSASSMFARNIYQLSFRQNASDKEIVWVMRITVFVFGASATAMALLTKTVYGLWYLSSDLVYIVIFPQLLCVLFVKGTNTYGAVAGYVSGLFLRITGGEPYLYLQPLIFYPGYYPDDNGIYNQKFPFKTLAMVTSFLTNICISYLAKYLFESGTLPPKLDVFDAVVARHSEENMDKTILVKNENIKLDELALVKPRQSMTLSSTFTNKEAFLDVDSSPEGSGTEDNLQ

[24] = target: T6, Ubiquitin-conjugating enzyme E2 N (Homo sapiens, UniProt P61088); format: functional;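 also: Dose-response confirmation in a TR-FRET assay detecting UBC13-driven polyubiquitin chain formation, inhibition measured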
T6 sequence (P61088 whole entry): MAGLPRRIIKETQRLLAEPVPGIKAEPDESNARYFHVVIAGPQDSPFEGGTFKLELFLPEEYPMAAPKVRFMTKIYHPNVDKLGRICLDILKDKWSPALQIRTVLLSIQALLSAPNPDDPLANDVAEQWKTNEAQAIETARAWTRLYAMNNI

HSP90, sequence (Q8IL32 whole entry): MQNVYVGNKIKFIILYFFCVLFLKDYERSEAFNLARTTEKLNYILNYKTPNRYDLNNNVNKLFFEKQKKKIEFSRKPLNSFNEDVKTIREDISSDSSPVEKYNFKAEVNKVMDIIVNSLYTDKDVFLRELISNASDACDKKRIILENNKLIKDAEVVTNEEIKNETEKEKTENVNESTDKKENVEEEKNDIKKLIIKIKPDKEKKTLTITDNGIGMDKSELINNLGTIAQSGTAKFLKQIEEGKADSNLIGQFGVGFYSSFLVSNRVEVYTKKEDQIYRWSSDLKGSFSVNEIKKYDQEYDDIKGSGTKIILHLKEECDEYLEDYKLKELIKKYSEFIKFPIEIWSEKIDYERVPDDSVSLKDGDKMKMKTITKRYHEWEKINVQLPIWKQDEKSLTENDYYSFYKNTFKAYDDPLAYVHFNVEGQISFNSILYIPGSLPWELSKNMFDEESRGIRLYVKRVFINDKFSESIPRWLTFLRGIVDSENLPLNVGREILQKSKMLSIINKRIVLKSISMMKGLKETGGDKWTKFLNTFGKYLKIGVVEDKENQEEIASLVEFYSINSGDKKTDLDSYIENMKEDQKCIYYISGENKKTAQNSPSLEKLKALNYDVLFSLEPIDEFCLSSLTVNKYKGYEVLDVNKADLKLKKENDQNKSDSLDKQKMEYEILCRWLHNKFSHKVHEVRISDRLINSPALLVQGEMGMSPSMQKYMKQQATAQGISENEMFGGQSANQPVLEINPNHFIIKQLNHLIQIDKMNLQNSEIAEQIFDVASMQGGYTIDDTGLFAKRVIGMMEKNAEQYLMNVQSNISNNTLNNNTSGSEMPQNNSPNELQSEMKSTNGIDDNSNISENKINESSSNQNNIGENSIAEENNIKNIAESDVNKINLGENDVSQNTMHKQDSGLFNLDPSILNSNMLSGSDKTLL
Paired box protein Pax-8, sequence (Q06710 whole entry): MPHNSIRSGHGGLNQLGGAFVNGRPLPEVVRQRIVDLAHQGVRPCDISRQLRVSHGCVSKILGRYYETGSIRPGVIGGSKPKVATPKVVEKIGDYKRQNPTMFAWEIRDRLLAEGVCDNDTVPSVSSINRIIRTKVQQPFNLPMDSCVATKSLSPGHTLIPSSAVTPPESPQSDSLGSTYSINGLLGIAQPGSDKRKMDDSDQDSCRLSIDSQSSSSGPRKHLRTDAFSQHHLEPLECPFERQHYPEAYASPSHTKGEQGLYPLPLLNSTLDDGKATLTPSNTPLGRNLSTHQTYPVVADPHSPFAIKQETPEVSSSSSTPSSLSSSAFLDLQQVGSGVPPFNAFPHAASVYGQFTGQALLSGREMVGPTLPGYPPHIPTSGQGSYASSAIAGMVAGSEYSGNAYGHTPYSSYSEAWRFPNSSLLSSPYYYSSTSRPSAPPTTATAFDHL
72 kDa type IV collagenase, sequence (P08253 whole entry): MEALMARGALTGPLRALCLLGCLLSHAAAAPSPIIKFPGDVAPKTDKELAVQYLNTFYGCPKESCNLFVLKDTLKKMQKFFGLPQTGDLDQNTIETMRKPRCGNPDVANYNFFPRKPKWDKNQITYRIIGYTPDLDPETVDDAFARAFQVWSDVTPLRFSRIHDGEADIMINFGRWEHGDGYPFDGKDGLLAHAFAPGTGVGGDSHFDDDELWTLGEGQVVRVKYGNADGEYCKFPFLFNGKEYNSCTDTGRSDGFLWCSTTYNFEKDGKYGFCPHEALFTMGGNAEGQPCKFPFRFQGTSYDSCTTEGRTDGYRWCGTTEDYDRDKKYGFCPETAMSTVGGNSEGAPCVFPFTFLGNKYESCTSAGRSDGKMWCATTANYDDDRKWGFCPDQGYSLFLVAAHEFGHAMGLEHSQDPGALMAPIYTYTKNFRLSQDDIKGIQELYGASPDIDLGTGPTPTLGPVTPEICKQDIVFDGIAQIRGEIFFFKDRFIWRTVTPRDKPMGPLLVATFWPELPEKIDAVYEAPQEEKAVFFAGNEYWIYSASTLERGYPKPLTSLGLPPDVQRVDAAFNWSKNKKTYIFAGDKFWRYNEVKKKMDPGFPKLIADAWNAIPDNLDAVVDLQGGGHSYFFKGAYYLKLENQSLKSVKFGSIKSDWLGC
26S proteasome non-ATPase regulatory subunit 14, sequence (O00487 whole entry): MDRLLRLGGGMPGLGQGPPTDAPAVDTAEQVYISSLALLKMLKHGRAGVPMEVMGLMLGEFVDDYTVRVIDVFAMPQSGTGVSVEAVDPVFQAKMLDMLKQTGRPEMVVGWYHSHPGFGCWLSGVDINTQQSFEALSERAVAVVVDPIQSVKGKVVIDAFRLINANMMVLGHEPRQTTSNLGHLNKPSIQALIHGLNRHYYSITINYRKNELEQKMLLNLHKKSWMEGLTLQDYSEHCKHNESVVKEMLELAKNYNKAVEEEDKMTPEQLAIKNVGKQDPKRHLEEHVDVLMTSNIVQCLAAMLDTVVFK
Multidrug resistance protein CDR1, sequence (P43071 whole entry, looked up): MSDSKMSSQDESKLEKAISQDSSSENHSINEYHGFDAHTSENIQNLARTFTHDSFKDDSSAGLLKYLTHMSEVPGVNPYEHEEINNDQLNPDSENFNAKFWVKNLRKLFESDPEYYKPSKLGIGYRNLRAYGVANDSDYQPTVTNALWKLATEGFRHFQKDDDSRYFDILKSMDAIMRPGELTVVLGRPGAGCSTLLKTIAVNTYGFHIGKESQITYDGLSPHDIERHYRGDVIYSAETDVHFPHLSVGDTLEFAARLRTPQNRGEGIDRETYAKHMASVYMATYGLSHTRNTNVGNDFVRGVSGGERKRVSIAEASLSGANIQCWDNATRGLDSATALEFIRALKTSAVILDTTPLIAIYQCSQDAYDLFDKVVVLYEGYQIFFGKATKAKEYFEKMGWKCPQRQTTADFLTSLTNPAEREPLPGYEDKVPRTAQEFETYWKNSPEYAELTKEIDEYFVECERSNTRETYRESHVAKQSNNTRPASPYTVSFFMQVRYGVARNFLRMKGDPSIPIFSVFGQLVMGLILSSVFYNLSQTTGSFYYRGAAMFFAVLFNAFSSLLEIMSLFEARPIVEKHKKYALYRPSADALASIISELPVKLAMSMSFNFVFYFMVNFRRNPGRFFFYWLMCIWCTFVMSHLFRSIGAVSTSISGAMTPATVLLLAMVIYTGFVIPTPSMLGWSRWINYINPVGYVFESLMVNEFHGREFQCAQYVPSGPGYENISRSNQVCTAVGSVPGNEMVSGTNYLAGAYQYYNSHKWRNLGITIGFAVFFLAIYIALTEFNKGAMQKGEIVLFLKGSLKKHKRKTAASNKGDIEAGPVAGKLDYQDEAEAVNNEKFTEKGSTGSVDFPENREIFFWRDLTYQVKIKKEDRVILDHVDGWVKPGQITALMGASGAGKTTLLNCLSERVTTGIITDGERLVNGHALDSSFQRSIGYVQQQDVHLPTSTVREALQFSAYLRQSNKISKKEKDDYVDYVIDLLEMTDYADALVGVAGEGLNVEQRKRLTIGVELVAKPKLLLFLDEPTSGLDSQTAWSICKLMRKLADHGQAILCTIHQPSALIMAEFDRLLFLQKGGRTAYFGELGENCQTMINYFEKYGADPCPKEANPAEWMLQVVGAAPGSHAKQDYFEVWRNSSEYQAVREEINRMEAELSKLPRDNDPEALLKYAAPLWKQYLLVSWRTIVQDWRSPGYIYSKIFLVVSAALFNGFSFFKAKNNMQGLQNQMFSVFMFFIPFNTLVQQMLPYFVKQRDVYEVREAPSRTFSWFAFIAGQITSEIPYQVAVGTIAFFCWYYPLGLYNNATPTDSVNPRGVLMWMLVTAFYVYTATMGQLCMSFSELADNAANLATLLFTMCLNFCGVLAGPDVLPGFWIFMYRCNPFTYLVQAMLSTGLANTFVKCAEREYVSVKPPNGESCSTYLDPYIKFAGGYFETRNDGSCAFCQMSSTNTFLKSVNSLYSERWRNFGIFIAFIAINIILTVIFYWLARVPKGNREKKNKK

SMILES: C[C@@H]1CN([C@@H](C)CO)C(=O)c2cccc(NC(=O)Nc3cccc(Cl)c3Cl)c2O[C@H]1CN(C)S(=O)(=O)c1ccc2c(c1)OCCO2
- AC50 (INS1 [1]): 71.3 µM (active)
- AC50 [2]: 68.8 µM (active)
- AC50 (INS1 [3]): 15.2 µM (active)
- AC50 (INS1 [4]): 29.3 µM (active)

SMILES: CCc1c(O)n(C2CCCCC2)c(SCC(=O)Nc2ccc(C)cc2)nc1=O
- IC50 (Prothrombin): 45.4 µM (active)
- IC50 [5]: 20.6 µM (active)
- IC50 [6]: 38.3 µM (active)

SMILES: Cc1[nH]c2ccccc2c1C(=O)C(=O)N1CCC2(CC1)OCCO2
- IC50 [7]: > 99 µM (inactive)
- IC50 (Caspase-3): > 99 µM (inactive)
- IC50 [8]: > 99 µM (inactive)
- IC50 [9]: > 99 µM (inactive)

SMILES: Oc1c(I)cc(I)c2cccnc12 [IODOQUINOL]
- AC50 (HSP90): 0.314 µM (active)
- AC50 (Paired box protein Pax-8): 4.87 µM (active)
- IC50 [10]: > 10 µM (inactive)
- IC50 [11]: 0.0387 µM (active)
- IC50 [12]: 0.0178 µM (active)
- IC50 [13]: 0.0213 µM (active)
- IC50 [14]: 0.705 µM (active)
- IC50 [15]: 0.041 µM (active)
- IC50 [16]: 0.0227 µM (active)
- EC50 [17]: 7.36 µM (active)
- IC50 [18]: 0.0036 µM (active)
- EC50 [19]: 17.1 µM (active)
- IC50 [20]: > 10 µM (inactive)
- AC50 [21]: 0.391 µM (active)

SMILES: Cc1ccc(OCc2cc(C(=O)NCC(C)(C)N3CCOCC3)no2)cc1C
- EC50 [22]: 0.001 µM (active)

SMILES: O=C(CCC1CCCCC1)NCCN1C2=NC[C@H](Cc3ccccc3)N2C[C@H]1Cc1ccc(O)cc1
- EC50 [23]: 13.4 µM (active)
- IC50 [24]: > 20 µM (inactive)
